The text below walks through data of ChEMBL document CHEMBL5291721, “A preclinical secondary pharmacology resource illuminates target-adverse drug reaction associations of marketed drugs” (Nat Commun, 2023).

What is called AC50 is the concentration at which the activity in the assay is half-maximal.

In test [1] the target is T1, Alpha-2B adrenergic receptor (Homo sapiens, UniProt P18089).
T1 sequence (P18089 whole entry): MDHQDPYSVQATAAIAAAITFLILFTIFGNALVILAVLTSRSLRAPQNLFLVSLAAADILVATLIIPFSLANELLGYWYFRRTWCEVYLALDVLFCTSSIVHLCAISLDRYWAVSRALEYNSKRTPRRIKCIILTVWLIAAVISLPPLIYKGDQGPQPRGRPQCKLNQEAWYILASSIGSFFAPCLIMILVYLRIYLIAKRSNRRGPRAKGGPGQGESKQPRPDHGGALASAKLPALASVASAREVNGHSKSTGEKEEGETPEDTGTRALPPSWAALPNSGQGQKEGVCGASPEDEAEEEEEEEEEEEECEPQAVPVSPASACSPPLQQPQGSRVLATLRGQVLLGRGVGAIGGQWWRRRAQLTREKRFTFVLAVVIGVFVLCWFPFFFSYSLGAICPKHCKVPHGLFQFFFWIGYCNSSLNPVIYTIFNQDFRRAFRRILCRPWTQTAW

Test [2] has as its target Beta-2 adrenergic receptor (Homo sapiens, UniProt P07550).
For test [3], the target named is T2, Gastrin/cholecystokinin type B receptor (Homo sapiens, UniProt P32239).
T2 sequence (P32239 whole entry): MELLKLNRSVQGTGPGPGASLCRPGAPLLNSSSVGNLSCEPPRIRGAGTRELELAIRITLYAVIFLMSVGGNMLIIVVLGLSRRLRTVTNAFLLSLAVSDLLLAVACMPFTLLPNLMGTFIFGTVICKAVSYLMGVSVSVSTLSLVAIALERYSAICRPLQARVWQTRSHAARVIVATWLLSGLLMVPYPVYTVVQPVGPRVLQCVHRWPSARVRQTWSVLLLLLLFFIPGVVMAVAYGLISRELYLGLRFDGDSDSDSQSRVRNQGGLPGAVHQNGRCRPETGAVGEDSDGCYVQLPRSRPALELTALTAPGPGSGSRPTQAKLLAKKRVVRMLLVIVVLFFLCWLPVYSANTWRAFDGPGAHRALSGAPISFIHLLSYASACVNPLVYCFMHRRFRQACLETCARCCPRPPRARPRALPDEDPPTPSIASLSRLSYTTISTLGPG

Test [4] addresses T3, Muscarinic acetylcholine receptor M1 (Homo sapiens, UniProt P11229).
T3 sequence (P11229 whole entry): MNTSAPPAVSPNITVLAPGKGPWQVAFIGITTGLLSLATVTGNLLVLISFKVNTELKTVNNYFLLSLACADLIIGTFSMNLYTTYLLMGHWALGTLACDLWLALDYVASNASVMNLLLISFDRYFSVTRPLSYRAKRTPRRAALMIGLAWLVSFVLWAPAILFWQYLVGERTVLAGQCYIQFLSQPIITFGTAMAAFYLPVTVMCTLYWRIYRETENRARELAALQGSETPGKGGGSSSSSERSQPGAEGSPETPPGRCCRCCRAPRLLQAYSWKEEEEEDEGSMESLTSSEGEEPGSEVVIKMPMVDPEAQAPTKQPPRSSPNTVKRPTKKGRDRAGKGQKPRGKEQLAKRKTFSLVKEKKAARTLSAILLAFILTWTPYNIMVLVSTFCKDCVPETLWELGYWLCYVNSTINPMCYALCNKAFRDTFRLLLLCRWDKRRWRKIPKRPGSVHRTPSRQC
It counts as functional.

Test [5] addresses T4, Alpha-1A adrenergic receptor (Homo sapiens, UniProt P35348).
T4 sequence (P35348 whole entry): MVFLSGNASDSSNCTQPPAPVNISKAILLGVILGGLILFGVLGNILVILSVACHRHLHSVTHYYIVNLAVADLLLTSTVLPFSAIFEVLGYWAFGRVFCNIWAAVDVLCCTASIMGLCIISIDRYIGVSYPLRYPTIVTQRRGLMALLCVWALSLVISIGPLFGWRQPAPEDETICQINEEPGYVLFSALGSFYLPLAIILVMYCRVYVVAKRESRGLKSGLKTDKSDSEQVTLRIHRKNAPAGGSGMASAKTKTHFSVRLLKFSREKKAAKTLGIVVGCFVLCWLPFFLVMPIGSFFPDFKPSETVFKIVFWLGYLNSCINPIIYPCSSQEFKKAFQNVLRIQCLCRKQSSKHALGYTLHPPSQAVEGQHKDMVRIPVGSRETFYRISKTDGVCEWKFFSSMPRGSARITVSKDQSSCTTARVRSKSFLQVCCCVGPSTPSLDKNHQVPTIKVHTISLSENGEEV
It counts as functional, cell-based.

The target of test [6] is T5, Progesterone receptor (Homo sapiens, UniProt P06401).
T5 sequence (P06401 whole entry): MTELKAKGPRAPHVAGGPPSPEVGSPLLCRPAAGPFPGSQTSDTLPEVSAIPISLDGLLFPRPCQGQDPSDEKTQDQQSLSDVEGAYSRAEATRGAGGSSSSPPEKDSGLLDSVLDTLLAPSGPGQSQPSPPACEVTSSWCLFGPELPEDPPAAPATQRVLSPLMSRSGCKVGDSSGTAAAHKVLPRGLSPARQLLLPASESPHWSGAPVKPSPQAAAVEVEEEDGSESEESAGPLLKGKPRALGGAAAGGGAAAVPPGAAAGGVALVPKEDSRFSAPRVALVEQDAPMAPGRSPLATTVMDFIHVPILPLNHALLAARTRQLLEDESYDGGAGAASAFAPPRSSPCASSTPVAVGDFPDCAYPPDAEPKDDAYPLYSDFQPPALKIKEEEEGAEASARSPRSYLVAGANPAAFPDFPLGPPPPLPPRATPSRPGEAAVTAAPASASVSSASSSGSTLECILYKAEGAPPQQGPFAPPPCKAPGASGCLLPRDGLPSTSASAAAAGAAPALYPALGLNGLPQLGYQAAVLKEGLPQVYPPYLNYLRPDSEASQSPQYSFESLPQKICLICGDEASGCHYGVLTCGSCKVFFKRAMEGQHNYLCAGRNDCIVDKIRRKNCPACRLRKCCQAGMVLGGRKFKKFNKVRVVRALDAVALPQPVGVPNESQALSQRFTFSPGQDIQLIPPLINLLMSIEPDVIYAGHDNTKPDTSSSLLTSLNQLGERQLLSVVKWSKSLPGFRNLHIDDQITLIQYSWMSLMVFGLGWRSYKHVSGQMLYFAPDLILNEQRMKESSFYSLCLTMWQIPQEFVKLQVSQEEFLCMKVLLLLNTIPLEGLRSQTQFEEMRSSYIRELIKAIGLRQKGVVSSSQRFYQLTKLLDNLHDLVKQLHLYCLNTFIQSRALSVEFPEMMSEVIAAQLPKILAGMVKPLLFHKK
It counts as functional.

Test [7] has as its target T5, Progesterone receptor. It counts as functional. The source holds these as a separate data set.
Further: assay procedure not described here.

Beta-2 adrenergic receptor, sequence (P07550 whole entry): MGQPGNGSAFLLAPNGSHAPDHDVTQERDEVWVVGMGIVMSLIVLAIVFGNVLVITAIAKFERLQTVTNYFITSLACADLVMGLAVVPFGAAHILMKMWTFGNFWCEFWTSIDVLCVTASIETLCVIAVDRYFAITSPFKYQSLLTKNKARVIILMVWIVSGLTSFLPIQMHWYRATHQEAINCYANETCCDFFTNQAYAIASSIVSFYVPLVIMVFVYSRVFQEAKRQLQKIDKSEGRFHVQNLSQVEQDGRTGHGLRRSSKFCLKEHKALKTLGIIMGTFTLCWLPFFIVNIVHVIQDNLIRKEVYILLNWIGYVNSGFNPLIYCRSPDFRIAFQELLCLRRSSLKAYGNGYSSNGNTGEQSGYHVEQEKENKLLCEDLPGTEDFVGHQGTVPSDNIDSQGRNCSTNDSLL

For `C[C@]1(COc2ccc(N3CCC(Oc4ccc(OC(F)(F)F)cc4)CC3)cc2)Cn2cc([N+](=O)[O-])nc2O1`, the AC50 in test [1] was above 10 µM; in test [2], above 10 µM; in test [3] it was above 30 µM; in test [4], above 10 µM.
On to `C[C@]12CC[C@H](O)CC1=CC[C@@H]1[C@@H]2CC[C@]2(C)C(c3cccnc3)=CC[C@@H]12` [ABIRATERONE], for which the half-maximal activity concentration (AC50) in test [1] is above 10 µM; in test [2], above 30 µM; in test [3], above 30 µM; in test [4], above 10 µM.
Turning to `CC(=O)OCC[N+](C)(C)C` [ACETYLCHOLINE], the AC50 in test [5] is above 30 µM; in test [1] it was above 10 µM; in test [2], above 30 µM; in test [3], above 30 µM; at Progesterone receptor [6] it was 29 µM; at Progesterone receptor [7], above 30 µM.
With `O=C(Nc1nc(-c2cc(Cl)cs2)c(N2CCN(C3CCCCC3)CC2)s1)c1cnc(N2CCC(C(=O)O)CC2)c(Cl)c1` [AVATROMBOPAG], the AC50 in test [1], in test [2], in test [3] and in test [4] was above 10 µM throughout.
In the case of `CN(C)C(=O)Oc1cc(OC(=O)N(C)C)cc(C(O)CNC(C)(C)C)c1` (centres undefined) [BAMBUTEROL], the concentration at half-maximal activity (AC50) was 9.7 µM in test [2], above 30 µM in test [3], above 30 µM at Progesterone receptor [6] and above 30 µM on Progesterone receptor [7].
On to `C[C@H]1C[C@H]2[C@@H]3CCC4=CC(=O)C=C[C@]4(C)[C@@]3(Cl)[C@@H](O)C[C@]2(C)[C@@]1(O)C(=O)CO` [BECLOMETHASONE], for which the AC50 in test [2] is above 10 µM; in test [3], above 30 µM.
`CO[C@@]1(NC(=O)CSCC#N)C(=O)N2C(C(=O)O)=C(CSc3nnnn3C)CS[C@@H]21` [CEFMETAZOLE] registered a concentration at half-maximal activity (AC50) in test [5] above 30 µM.
Regarding `CO/N=C(\C(=O)N[C@@H]1C(=O)N2C(C(=O)[O-])=C(C[n+]3cccc4c3CCC4)CS[C@H]12)c1csc(N)n1` [CEFPIROME], the AC50 in test [5], in test [1] and in test [4] was above 30 µM in each case.
In the case of `NS(=O)(=O)c1cc(C2(O)NC(=O)c3ccccc32)ccc1Cl` (centres undefined) [CHLORTHALIDONE], the concentration at half-maximal activity (AC50) (in test [2]; at Progesterone receptor [6]; on Progesterone receptor [7]) was above 10 µM each time.
On to `CC[C@H]1OC(=O)[C@H](C)[C@@H](O[C@H]2C[C@@](C)(OC)[C@@H](O)[C@H](C)O2)[C@H](C)[C@@H](O[C@@H]2O[C@H](C)C[C@H](N(C)C)[C@H]2O)[C@](C)(OC)C[C@@H](C)C(=O)[C@H](C)[C@@H](O)[C@]1(C)O` [CLARITHROMYCIN], for which the AC50 (in test [5]; in test [3]; at Progesterone receptor [6]; on Progesterone receptor [7]) was above 30 µM each time.
Consider `Oc1c(I)cc(Cl)c2cccnc12` [CLIOQUINOL], for which the AC50 in test [5], in test [1] and in test [4] was above 30 µM each time.
`COc1ccc2c(c1)[C@]13CCCC[C@@H]1[C@H](C2)N(C)CC3` [DEXTROMETHORPHAN]: the AC50 is above 10 µM in test [2] and above 30 µM in test [3].
`O=c1oc2ccccc2c(O)c1Cc1c(O)c2ccccc2oc1=O` [DICUMAROL]: the concentration at half-maximal activity (AC50) (in test [2]; on Progesterone receptor [6]; at Progesterone receptor [7]) was above 10 µM in each case.
On to `CCn1cc(C(=O)O)c(=O)c2cc(F)c(N3CCNCC3)nc21` [ENOXACIN], for which the concentration at half-maximal activity (AC50) in test [2] is above 10 µM; in test [3], above 30 µM.
With `C#C[C@]1(O)CC[C@H]2[C@@H]3CCc4cc(OC)ccc4[C@H]3CC[C@@]21C` [MESTRANOL], the half-maximal activity concentration (AC50) is above 10 µM in test [2] and 0.096 µM on Progesterone receptor [6].
Regarding `N=C(N)c1ccc2cc(OC(=O)c3ccc(N=C(N)N)cc3)ccc2c1` [NAFAMOSTAT], the AC50 in test [5] was above 30 µM; in test [1], 12 µM; in test [3], above 30 µM; in test [4], 8.7 µM; at Progesterone receptor [6], above 30 µM.
Turning to `c1ccc2c(CC3=NCCN3)cccc2c1` [NAPHAZOLINE], the half-maximal activity concentration (AC50) in test [5] came out at 0.0006 µM; in test [1], 0.19 µM.
For `CNC(=O)Oc1ccc2c(c1)[C@]1(C)CCN(C)[C@@H]1N2C` [PHYSOSTIGMINE], the AC50 (in test [5]; in test [2]; in test [3]; at Progesterone receptor [6]; at Progesterone receptor [7]) was above 30 µM each time.
As to `NS(=O)(=O)c1cc(C(=O)O)cc(N2CCCC2)c1Oc1ccccc1` [PIRETANIDE], the half-maximal activity concentration (AC50) (in test [1]; in test [2]; in test [3]; in test [4]; on Progesterone receptor [6]; on Progesterone receptor [7]) was above 30 µM each time.
For the compound `CNCCCC1c2ccccc2C=Cc2ccccc21` [PROTRIPTYLINE], the AC50 at Progesterone receptor [6] and at Progesterone receptor [7] was above 10 µM each time.
Regarding `COCCCOc1ccnc(C[S+]([O-])c2nc3ccccc3[nH]2)c1C` (centres undefined) [RABEPRAZOLE], the figures for the AC50 in test [2] and in test [3] were above 10 µM and above 30 µM, respectively.
Take `O=C(CCCN1CCC2(CC1)C(=O)NCN2c1ccccc1)c1ccc(F)cc1` [SPIPERONE]: the concentration at half-maximal activity (AC50) in test [5] was 11.8 µM; in test [1] it was 2.25 µM; in test [3], above 30 µM; in test [4], above 30 µM; at Progesterone receptor [6], above 30 µM; at Progesterone receptor [7], above 30 µM.
As for `CCSc1ccc2c(c1)N(CCCN1CCN(C)CC1)c1ccccc1S2` [THIETHYLPERAZINE], the half-maximal activity concentration (AC50) in test [5] was above 30 µM; in test [4] it was 16 µM; on Progesterone receptor [6] it was above 30 µM; at Progesterone receptor [7], above 30 µM.
Consider `OCCN1CCN(CC/C=C2/c3ccccc3Sc3ccc(Cl)cc32)CC1` [ZUCLOPENTHIXOL], for which the half-maximal activity concentration (AC50) in test [1] was 0.32 µM; in test [2] it was above 10 µM; in test [4], above 10 µM; at Progesterone receptor [6], above 10 µM; on Progesterone receptor [7] it was above 10 µM.
